# Data: patent US5366726A (priority 1992, dated 1994)
# Values joined by “and” are separate entries in the source; they are usually repeats but may differ in a detail not shown here. Equal entries are not always repeated. “Also recorded” adds a separate entry of the source. Where two headings read alike, the source gives them in different places.
# Assays:
# Pneumocystis carinii [1] = assay: Example 1: treatment of P. carinii pneumonia, inhaled vs intravenous pentamidine; type: in vivo, human
# [2] = Example 1: pentamidine concentrations in plasma and bronchoalveolar lavage fluid (HPLC); type: in vivo, human; conditions: for Plasma conc. on Day 1: peak during or end of inhalation, single patients
# Description: For six inhalation patients (1, 4, 6, 7, 15, and 16) and five i.v. patients (2, 3, 5, 8, and 22), plasma samples were obtained at the completion of therapy and at 0.17, 0.5, 1, 1.5, 2, 2.5, 3, 4, 5, 6, 8, 10, 12, and 18 hours following initiation of therapy. For patients 9-14 and 17-21, trough and peak plasma samples were collected for the first three days, then weekly during therapy. Trough and peak samples were obtained on days 2, 3, 4, 5, 7, 11, and 13 for patient 2, days 2, 3, 4, 5, 7, and 12 for patient 3, days 2, 3, 4, 5, 13 and 18 for patient 5, and days 2, 3, 4, 5, and 11 for patient 8.
# [3] = Example 2: aerosol particle size, Mercer cascade impactor; type: physicochemical
# Description: A compressed oxygen (5-7 L/min at 345 kPa, 50 psi) powered nebulizer produces the aerosol and one-way valves provide for entrainment of room air in patients whose minute ventilation is high, act as a baffle to decrease particle size, and direct expired air to a filter which removes the remaining particles of drug thereby preventing environmental contamination.
# Particles were sized with a 7 stage Mercer cascade impactor (Intox Products, Albuquerque, N. Mex.). The gas supply was 6 L/min, the sample stream was not dried, and the impactor flow rates were 0.5 L/min. […] Results from the average of three determinations at each location were expressed as mass median aerodynamic diameter±geometric standard deviation (MMAD±GSD). Raabe, J Aerosol Sci (1971) 2:289-303.
# Pneumocystis carinii [4] = type: in vivo, human
# [5] = Example 3: serum pentamidine concentrations; type: in vivo; conditions: human, inhaled or intranasal, 300 mg, serum pentamidine concentration at end of therapy, 2 patients
# Pneumocystis carinii [6] = type: in vivo, human; remark: listed apart in the source
# Description: The initial diagnosis of P. carinii pneumonia was based on finding the organism in induced sputum or bronchoalveolar lavage specimens.
# Treatment was as described in Example 3.
# (§1) Chest radiographs and arterial blood gas tensions were obtained as clinically indicated.
# [7] = parameters: species or system human; conditions: in vivo
# Description: as §1
# Liver function SGOT or SGPT
# Rash with fever or mucositis
# Cough cough or bronchospasm un-
# Pneumocystis carinii [8] = assay: Example 5: prevention of P. carinii pneumonia, 300 mg once per month; type: in vivo, human; conditions: single prior episode; vs 10 based on 132 historical controls, p<0.01
# Description: Within 30 days of initiation of prophylaxis, ten patients were omitted due to treatment (9) or relapse (1). Of the 93 patients, 48 had had at least one previous episode of PCP. Two-thirds of the patients were taking AZT at the onset and throughout the duration of the post-exposure prophylaxis. The median and maximum duration of treatment at the time of analysis was 3.1 and 5.2 months.
# Pneumocystis carinii [9] = assay: Example 7: prevention of PCP, 300 mg twice per month vs 600 mg once per month; type: in vivo, human
# Description: Five patients who developed PCP within 28 days were not evaluated. One hundred (66%) of the patients were concurrently receiving AZT, and 42 (28%) had experienced one prior episode of PCP.
# [10] = Example 8: adverse effects in the clinical trial; type: in vivo, human
# Description: Participants were enrolled in one of 13 treatment centers located in the San Francisco Bay area.
# Each treatment was supervised by a respiratory therapist who noted any immediate adverse effects and administered a bronchodilator if needed for severe coughing or bronchospasm.
# Participants were questioned at baseline and at each visit about concomitant medications, intercurrent illnesses, and symptoms. Information from participants, their physicians, hospital records, microbiology departments, and county health departments were used to determine status.
# [11] = human, in vivo
# Pneumocystis carinii [12] = conditions: standard therapy, intravenous pentamidine or TMP-SMX
# Description: Adult patients having or suspected of having AIDS, and who were hospitalized for a fiberoptic bronchoscopy to evaluate diffuse infiltrates on chest radiographs, were studied. The patients were divided into two groups.
# [13] = cited from earlier work
# Pneumocystis carinii [14] = conditions: cited from earlier work; for Vital Capacity: percent predicted
# [15] = parenteral pentamidine, TMP-SMX; cited from earlier work
# [16] = inhaled, animals; cited from earlier work
# [17] = Example 1: toxicity of inhaled vs intravenous pentamidine in patients; conditions: for major toxicity: neutropenia
smiles,measurement,setting,value
"N=C(N)c1ccc(OCCCCCOc2ccc(C(=N)N)cc2)cc1 [pentamidine, p,p'-(pentamethylenedioxy)dibenzamidine]",successfully treated patients with relapses,Pneumocystis carinii [1]; inhaled,three of ten
same,Outcome of therapy,"Pneumocystis carinii [1]; inhaled, 4 mg/Kg, UltraVent, single patients",success; also recorded: failed
same,patients readmitted and treated for P. carinii pneumonia after discharge,"Pneumocystis carinii [1]; inhaled, at one, three and two months",Three
same,"Time to discharge, all patients in group","Pneumocystis carinii [1]; inhaled, based on 9 successful patients",15 ± 1 days
same,patients with satisfactory outcome,"Pneumocystis carinii [1]; inhaled, of the remaining ten evaluated patients",nine
same,recurrence of PCP at follow-up,"Pneumocystis carinii [1]; inhaled, remaining six, one to nine months following discharge",no recurrence of PCP
same,Time to discharge,"Pneumocystis carinii [1]; inhaled, single patients",9 days
same,patients with satisfactory outcome,Pneumocystis carinii [1]; intravenous,Eight of nine
same,Outcome of therapy,"Pneumocystis carinii [1]; intravenous, 3 mg/Kg, single patients",success; also recorded: failed
same,"Time to discharge, all patients in group","Pneumocystis carinii [1]; intravenous, based on 8 successful patients",14 ± 2 days
same,relapses at follow-up,"Pneumocystis carinii [1]; intravenous, four patients, five to six months",no reported relapses
same,Cmax,"[2]; human, plasma, intravenous, 3 mg/Kg, read-out: mean peak plasma concentration during first infusion",260 ± 56 ng/mL
same,plasma samples with no detectable drug,[2]; inhaled,approximately two-thirds
same,"lavage fluid concentration, inhalation vs iv-treated patients",[2]; inhaled vs intravenous,approximately 10 fold
same,Plasma conc. on Day 1,[2]; inhaled,0.0 ng/mL
same,Plasma conc. on Day 1,"[2]; inhaled, 1440 min",3.1 ng/mL and 14.7 ng/mL and 16.9 ng/mL and 7.3 ng/mL and 32.8 ng/mL and 12.3 ng/mL and 2.5 ng/mL and 7.4 ng/mL and 7.8 ng/mL and 35.0 ng/mL and 30.9 ng/mL and 9.2 ng/mL
same,"maximum plasma concentration during remainder of therapy, single patients","[2]; intravenous, patient 3 day 5 (lowest), patient 19 day 14 (highest)",164 ng/mL and 1360 ng/mL
same,mass of particles larger than 4 μm,[3]; at mouth-piece,less than 5%
same,particle size MMAD,"[3]; at mouth-piece (point B), ± GSD 1.88",1.42±1.88 μm
same,mass of particles larger than 4 μm,[3]; distal to nebulizer,greater than 20%
same,"dyspnea, respiratory rate and fever",Pneumocystis carinii [4]; all 13 patients treated successfully,marked reduction
same,patients who died of progressive respiratory failure,"Pneumocystis carinii [4]; concomitant tuberculosis, changed to TMP-SMX day 7",One
same,"clinical improvement during second week, patients",Pneumocystis carinii [4]; in vivo,3 patients
same,"clinical improvement in first week, patients",Pneumocystis carinii [4]; in vivo,Ten
same,Successful Treatment w/ Change,Pneumocystis carinii [4]; n = 15,14(93) n (%)
same,Successful Treatment w/o Change,Pneumocystis carinii [4]; n = 15,13(86) n (%)
same,"worsened infiltrates at one week with subsequent improvement, patients",Pneumocystis carinii [4]; of 13,Five
same,"worsened or no improvement for first two weeks, then improvement, patients",Pneumocystis carinii [4]; of 13,4 patients
same,"radiographic improvement beginning by second week, patients",Pneumocystis carinii [4]; of 13 patients treated successfully,4
same,average hospital stay,Pneumocystis carinii [4]; patients treated successfully,8 days
same,concentration at 504 h,[5],22 ng/mL
same,"hypoxia, fever, dyspnea",Pneumocystis carinii [6]; 10 patients,"none of the patients were hypoxic or febrile, all had improvement in dyspnea"
same,completion of therapy,"Pneumocystis carinii [6]; 10 patients, 4 to 17 days",All patients successfully completed therapy
same,chest radiographs,Pneumocystis carinii [6]; current or subsequent,roentrographic improvement of infiltrates
same,severe adverse reactions,[7],No patient developed any severe adverse reactions
same,number of observed cases,Pneumocystis carinii [8],3 cases
same,attack rate at 6.38 months,"Pneumocystis carinii [9]; 300 mg twice or 600 mg once per month, p<0.01 vs previous study",3%
same,deaths associated with PCP,Pneumocystis carinii [9]; 3 deaths,2%
same,deaths due to other causes,Pneumocystis carinii [9]; 9 deaths,6%
same,evaluable patients who died,Pneumocystis carinii [9]; 12 of 146,8%
same,"Pneumothorax, Known etiology",[10]; 30 mg,5
same,"Pneumothorax, Spontaneous",[10]; 30 mg,2
same,Significant Cough,[10]; 30 mg,31%
same,Treatments stopped due to cough,[10]; 30 mg,0%
same,Used Bronchodilators,[10]; 30 mg,7.5%
same,"Withdrew, Adverse Effects",[10]; 30 mg,2
same,"Pneumothorax, Known etiology",[10]; 150 mg,5
same,"Pneumothorax, Spontaneous",[10]; 150 mg,3
same,Significant Cough,[10]; 150 mg,40%
same,Treatments stopped due to cough,[10]; 150 mg,0.2%
same,Used Bronchodilators,[10]; 150 mg,14%
same,"Withdrew, Adverse Effects",[10]; 150 mg,11
same,"Pneumothorax, Known etiology",[10]; 300 mg,3
same,"Pneumothorax, Spontaneous",[10]; 300 mg,3
same,Significant Cough,[10]; 300 mg,38%
same,Treatments stopped due to cough,[10]; 300 mg,0.7%
same,Used Bronchodilators,[10]; 300 mg,20%
same,"Withdrew, Adverse Effects",[10]; 300 mg,10
same,significant coughing during a treatment,[10]; all participants,36%
same,wheezing during a treatment,[10]; all participants,11%
same,participants who used bronchodilators during treatment,"[10]; human, in vivo",Fourteen
same,"rash, participants","[10]; human, in vivo",One
same,spontaneous pneumothorax,"[10]; human, in vivo",Eight
same,"stopped due to interstitial pneumonitis, participants","[10]; human, in vivo",One
same,treatments ended by cough,"[10]; human, in vivo",0.3%
same,treatments interrupted by cough,"[10]; human, in vivo",0.5%
same,"withdrew after pneumothoraces, participants","[10]; human, in vivo",four
same,airway mucosal damage at repeat bronchoscopy,[11],has not revealed evidence of airway mucosal damage
same,hypotension or dysglycemia,[11],no episodes of hypotension or dysglycemia
same,"mild inhalation-associated cough, patients",[11],Eight of thirteen
same,mucosal damage at repeat bronchoscopy,[11],evidence of mucosal damage has not been observed
same,pentamidine-related reactions in some patients,[11],"cough, bronchospasm, or temperature elevation"
same,"reversible bronchospasm, patients",[11],five
same,signs or symptoms of bronchitis or bronchospasm between inhalations,[11],not present
same,response of all patients infected with P. carinii,Pneumocystis carinii [12],responded to standard therapy
same,less common adverse effects,"[13]; human, in vivo",cardiac arrhythmias and pancreatitis
same,local reactions at site of intramuscular injection,[13]; intramuscular,"Pain, swelling and sterile abscesses"
same,"generalized or local reactions, intravenous",[13]; intravenous,thrombophlebitis and generalized or localized urticarial eruptions
same,hypoglycemia,[13]; parenteral,Hypoglycemia has also been reported
same,impaired renal function,[13]; parenteral,about 25%
same,other common adverse reactions,[13]; parenteral,"elevation of liver enzymes, hematologic disturbances with neutropenia and thrombocytopenia, fever, hypocalcemia, and hallucinations"
same,hypotension,[13]; single intramuscular dose or rapid intravenous infusion,Severe hypotension
same,PaO2,"Pneumocystis carinii [14]; post therapy, TMP-DPS only 8 patients tested",87.2 torr
same,DLCO,Pneumocystis carinii [14]; post therapy,62
same,Vital Capacity,Pneumocystis carinii [14]; post therapy,80
same,DLCO,Pneumocystis carinii [14]; pre therapy,59.0
same,PaO2,Pneumocystis carinii [14]; pre therapy,69.3 torr
same,Vital Capacity,Pneumocystis carinii [14]; pre therapy,70
same,rate of severe reactions,[15],50%
same,microscopic airway changes,[16],no microscopic airway changes
same,"minor toxicity (rash), patients",[17]; inhaled,One
same,major toxicity,"[17]; inhaled, patients also received AZT",20%
same,"minor toxicity (elevated serum creatinine, depressed leukocyte count), patients",[17]; intravenous,four
same,required a change of therapy due to toxicity,[17]; intravenous,11%
same,major toxicity,"[17]; intravenous, hepatotoxicity",22%
